From patent US9796659B2, “Derivatives of polyhydroxy compounds” (RATIOPHARM GMBH, priority 2014, dated 2017)
Structures can show the parent of a compound that is named as a salt.

Assays:
Caco-2 monolayers = assay: in vitro; conditions: for permeability category compared to the reference molecules: Caco-2
Protocol: (§1) The membrane permeability was investigated in Caco-2 monolayers. DMF was investigated in a separate experiment for comparison.
(§2) […] The test concentration in the apical medium was 250 μM. […] Furthermore, a significant metabolism or degradation of the test compound was expected and therefore the parent compound as well as MMF was determined in the acceptor compartment (basolateral medium). Sampling time points were 15, 45 and 90 min.

in vitro = conditions: human; for recovery at 90 min, 250 μM / recovery at 90 min: Caco-2, Recovery [%] mean ± s.d.
Protocol: as §1, §2

[1] = test system: MOG35-55-induced experimental autoimmune encephalomyelitis (EAE); assay: MOG35-55-induced experimental autoimmune encephalomyelitis (EAE) in the mouse; format: in vivo, male C57BL/6 mice; conditions: prophylactic treatment from day 1; observations day 1 to 13; dose formulation 11.54 mM, 10 ml/kg
Protocol: The pharmacological efficacy was investigated in experimental autoimmune encephalomyelitis (EAE) in the mouse.
The experiments were performed as follows: male C57BL/6 mice, 12 weeks old, 10 animals per treatment group, were used. On day 1, animals were immunized by sub-cutaneous injection of MOG35-55, which was mixed in complete Freund's adjuvants. On the same day as well as on day 3 the animals received a sub-cutaneous injection of Pertussis-toxin.
Assessment and comparison of the efficacy of compounds of the invention and DMF (reference) in MOG35-55-induced experimental autoimmune encephalomyelitis (EAE) in C57BL/6 mice. • Test system: male C57BL/6 mice, 12 weeks old; 10 animals per treatment group; • Induction of EAE: Day 1—subcutaneous injection of MOG35-55, suspended in complete Freund's adjuvants and intraperitoneal injection of pertussis toxin. • Day 3—intraperitoneal injection of pertussis toxin. • Treatment: Dimethylfumarate and test substances or vehicle only were administered via oral and intravenous route. For oral administration, test substances were dissolved or suspended in 0.5% hydroxyethylcellulose (dissolved in 50 mM potassium dihydrogenphosphate, pH 5.0). […]

[2] = In vivo pharmacokinetics of MMF after p.o. administration; parameters: species or system female NMRI mice; conditions: female, NMRI, mouse, po, 49.4 mg/kg
Protocol: The pharmacokinetics of MMF after administration of Example 7 and DMF for comparison was investigated in female NMRI mice (3 animals per group). The test compound was dissolved in DMSO/PEG300 (20/80) and administered p.o. (gavage) at a dose volume of 10 ml/kg. DMF was given at a dose of 45 mg/kg. The test compound was dosed at a MMF-equivalent dose, i.e. 49.4 mg/kg. Blood samples were taken at 0.25, 0.5, 1.0, 2.0, 4.0, 6.0 and 8.0 h after drug administration.
Pharmacokinetic parameters, derived by non-compartmental analysis for test compound

[3] = Caco-2, Papp × 10^−6 [cm/sec] mean ± s.d.

## COC(=O)/C=C/C(=O)OC [DMF, Dimethyl fumarate]
Caco-2 monolayers
  permeability category compared to the reference molecules: moderate permeability
In vitro; [3]
  Papp A→B at 90 min, 250 μM: 1.8 ± 0.2 ×10⁻⁶ cm/s
In vitro
  recovery at 90 min, 250 μM: 11.6%
[1]
  body weight: remained stable
  clinical symptoms (clinical score, grade 0-10): protected from the development of clinical symptoms

## CC[C@H]1OC(=O)[C@H](C)[C@@H](O[C@H]2C[C@@](C)(OC)[C@@H](O)[C@H](C)O2)[C@H](C)[C@@H](O[C@@H]2O[C@H](C)C[C@H](N(C)C)[C@H]2O)[C@](C)(O)C[C@@H](C)C(=O)[C@H](C)[C@@H](O)[C@]1(C)O [Erythromycin, erythromycin]
Caco-2 monolayers; human, Caco-2, 90 min
  Efflux ratio (b-a/a-b): 100.8
  Papp × 10^−6 [cm/sec] mean ± s.d.: 11.5 ± 0.5 10^−6 cm/sec
  Recovery [%] mean ± s.d.: 89.1 ± 8.5%
Caco-2 monolayers; human, Caco-2, 90 min, 250 μM
  Papp × 10^−6 [cm/sec] mean ± s.d.: 0.1 ± 0.2 10^−6 cm/sec
  Recovery [%] mean ± s.d.: 91.0 ± 1.9%
In vitro; Caco-2, Efflux ratio (b-a/a-b)
  efflux ratio at 90 min: 55.9
In vitro; [3]
  Papp A→B at 90 min, 250 μM: 0.2 ± 0.02 ×10⁻⁶ cm/s
  Papp B→A at 90 min: 12.3 ± 0.4 ×10⁻⁶ cm/s
In vitro
  recovery at 90 min: 99.9 ± 2.4%
  recovery at 90 min, 250 μM: 108 ± 2.2%

## COC(=O)/C=C/C(=O)OCC(O)COC(=O)/C=C/C(=O)OC [Example 7, (E)-But-2-enedioic acid 2-hydroxy-3-((E)-3-methoxycarbonyl-acryloyloxy)-propyl ester methyl ester]
Caco-2 monolayers
  permeability category compared to the reference molecules: moderate permeability
In vitro; [3]
  Papp A→B at 90 min, 250 μM: 2.5 ± 0.2 ×10⁻⁶ cm/s
In vitro
  recovery at 90 min, 250 μM: 18.3%
[2]
  Tmax of MMF: 15 min

## C[C@]12CC[C@H]3[C@@H](CCC4=CC(=O)CC[C@@]43C)[C@@H]1CC[C@@H]2O [Testosterone, testosterone]
Caco-2 monolayers; direction a-b
  Recovery [%] mean ± s.d.: 62.5 ± 2.1%
Caco-2 monolayers; direction b-a
  Recovery [%] mean ± s.d.: 76.1 ± 4.5%
In vitro; direction a-b
  recovery at 90 min, 250 μM: 67.3 ± 1.2%
In vitro; direction b-a
  recovery at 90 min: 94.9 ± 0.9%
